Laboratory results: doi:10.1101/2020.06.06.138008v1 (biorxiv, 2020)

Molecular target: MlaFEDB (Escherichia coli, UniProt P63386)
Conditions: pH 8.0, 5 mM MgCl2, 150 mM NaCl, 0.5 mM DDM micelles; Hill n = 1.81 ± 0.35

Chain of MlaFEDB (P63386 whole entry): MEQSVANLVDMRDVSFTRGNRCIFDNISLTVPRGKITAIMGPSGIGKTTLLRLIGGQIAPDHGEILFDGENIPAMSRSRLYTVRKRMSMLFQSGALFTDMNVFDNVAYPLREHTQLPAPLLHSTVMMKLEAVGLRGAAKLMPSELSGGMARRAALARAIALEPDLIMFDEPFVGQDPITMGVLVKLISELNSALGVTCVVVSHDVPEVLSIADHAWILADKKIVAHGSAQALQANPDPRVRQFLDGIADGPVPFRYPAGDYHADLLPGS
Chain of MlaFEDB (P64606 whole entry partner): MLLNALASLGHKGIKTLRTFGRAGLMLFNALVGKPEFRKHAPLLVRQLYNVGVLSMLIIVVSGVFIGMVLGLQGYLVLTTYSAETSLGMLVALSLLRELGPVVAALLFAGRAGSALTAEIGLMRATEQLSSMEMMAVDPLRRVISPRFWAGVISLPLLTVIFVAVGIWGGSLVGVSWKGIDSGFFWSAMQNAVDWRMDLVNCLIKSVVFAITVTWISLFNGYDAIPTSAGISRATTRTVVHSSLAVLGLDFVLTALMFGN
Chain of MlaFEDB (P64604 whole entry partner): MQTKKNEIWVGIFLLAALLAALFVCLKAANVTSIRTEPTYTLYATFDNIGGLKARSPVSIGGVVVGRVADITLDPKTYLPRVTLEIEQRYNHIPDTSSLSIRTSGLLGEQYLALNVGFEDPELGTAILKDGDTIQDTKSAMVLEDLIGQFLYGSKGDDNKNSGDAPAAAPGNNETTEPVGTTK
Chain of MlaFEDB (P64602 whole entry partner): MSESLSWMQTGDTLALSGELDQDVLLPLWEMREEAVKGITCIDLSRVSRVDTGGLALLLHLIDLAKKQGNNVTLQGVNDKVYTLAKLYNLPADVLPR

In the case of `Nc1ncnc2c1ncn2[C@@H]1O[C@H](COP(=O)(O)OP(=O)(O)OP(=O)(O)O)[C@@H](O)[C@H]1O` [ATP], the Km is reported as 200 ± 44.6 µM.
